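All cell lines were grown in 96-well plates and treated with compound for 48 hours. Abbreviation: GI50, concentration required for 50% inhibition of growth. TGI is the concentration that stops growth completely.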
Legend:
Assay in all cases: DTP human tumour cell line panel, 48 h
786-0 renal = system: 786-0 renal
A498 renal = system: A498 renal
A549 NSCLC = system: A549 NSCLC
ACHN renal = system: ACHN renal
BT-549 breast = system: BT-549 breast
CAKI-1 renal = system: CAKI-1 renal
CCRF-CEM leukemia = system: CCRF-CEM leukemia
COLO 205 colon = system: COLO 205 colon
DU-145 prostate = system: DU-145 prostate
EKVX NSCLC = system: EKVX NSCLC
HCC-2998 colon = system: HCC-2998 colon
HCT-116 colon = system: HCT-116 colon
HCT-15 colon = system: HCT-15 colon
HL-60(TB) leukemia = system: HL-60(TB) leukemia
HOP-62 NSCLC = system: HOP-62 NSCLC
HOP-92 NSCLC = system: HOP-92 NSCLC
HS 578T breast = system: HS 578T breast
HT29 colon = system: HT29 colon
IGROV1 ovarian = system: IGROV1 ovarian
K-562 leukemia = system: K-562 leukemia
KM12 colon = system: KM12 colon
LOX IMVI melanoma = system: LOX IMVI melanoma
M14 melanoma = system: M14 melanoma
MALME-3M melanoma = system: MALME-3M melanoma
MCF7 breast = system: MCF7 breast
MDA-MB-231 breast = system: MDA-MB-231 breast
MDA-MB-435 = system: MDA-MB-435
MOLT-4 leukemia = system: MOLT-4 leukemia
NCI-H226 lung = system: NCI-H226 lung
NCI-H23 lung = system: NCI-H23 lung
NCI-H460 lung = system: NCI-H460 lung
NCI-H522 lung = system: NCI-H522 lung
NCI/ADR-RES ovarian = system: NCI/ADR-RES ovarian
OVCAR-3 ovarian = system: OVCAR-3 ovarian
OVCAR-4 ovarian = system: OVCAR-4 ovarian
OVCAR-5 ovarian = system: OVCAR-5 ovarian
OVCAR-8 ovarian = system: OVCAR-8 ovarian
PC-3 prostate = system: PC-3 prostate
RPMI-8226 leukemia = system: RPMI-8226 leukemia
SF-268 CNS = system: SF-268 CNS
SF-295 CNS = system: SF-295 CNS
SF-539 CNS = system: SF-539 CNS
SK-MEL-2 melanoma = system: SK-MEL-2 melanoma
SK-MEL-28 melanoma = system: SK-MEL-28 melanoma
SK-MEL-5 melanoma = system: SK-MEL-5 melanoma
SK-OV-3 ovarian = system: SK-OV-3 ovarian
SN12C renal = system: SN12C renal
SNB-19 CNS = system: SNB-19 CNS
SNB-75 CNS = system: SNB-75 CNS
SR leukemia = system: SR leukemia
SW-620 colon = system: SW-620 colon
T-47D breast = system: T-47D breast
TK-10 renal = system: TK-10 renal
U251 CNS = system: U251 CNS
UACC-257 melanoma = system: UACC-257 melanoma
UACC-62 melanoma = system: UACC-62 melanoma
UO-31 renal = system: UO-31 renal

Q: Which results are given for `CCN1C(=O)N(CC)C2C1NN=c1s/c(=C\c3ccc(C(F)(F)F)cc3)c(=O)n12` (stereo not drawn)?
A: GI50 (786-0 renal): 1230 nM; TGI (786-0 renal): > 39000 nM; GI50 (A498 renal): 164 nM; TGI (A498 renal): 719 nM; GI50 (A549 NSCLC): 395 nM; TGI (A549 NSCLC): > 43100 nM; GI50 (ACHN renal): 808 nM; TGI (ACHN renal): 30500 nM; GI50 (BT-549 breast): 783 nM; TGI (BT-549 breast): > 20800 nM; GI50 (CAKI-1 renal): 328 nM; TGI (CAKI-1 renal): 36400 nM; GI50 (CCRF-CEM leukemia): 328 nM; TGI (CCRF-CEM leukemia): 17000 nM; GI50 (COLO 205 colon): 256 nM; TGI (COLO 205 colon): 888 nM; GI50 (DU-145 prostate): 410 nM; TGI (DU-145 prostate): > 32100 nM; GI50 (EKVX NSCLC): 521 nM; TGI (EKVX NSCLC): > 56200 nM; GI50 (HCC-2998 colon): 354 nM; TGI (HCC-2998 colon): 11600 nM; GI50 (HCT-116 colon): 343 nM; TGI (HCT-116 colon): > 32800 nM; GI50 (HCT-15 colon): 318 nM; TGI (HCT-15 colon): > 35600 nM; GI50 (HL-60(TB) leukemia): 245 nM; TGI (HL-60(TB) leukemia): 609 nM; GI50 (HOP-62 NSCLC): 508 nM; TGI (HOP-62 NSCLC): 29800 nM; GI50 (HOP-92 NSCLC): 2200 nM; TGI (HOP-92 NSCLC): 35900 nM; GI50 (HS 578T breast): 349 nM; TGI (HS 578T breast): > 42500 nM; GI50 (HT29 colon): 352 nM; TGI (HT29 colon): 11800 nM; GI50 (IGROV1 ovarian): 576 nM; TGI (IGROV1 ovarian): 33100 nM; GI50 (K-562 leukemia): 294 nM; TGI (K-562 leukemia): > 39800 nM; GI50 (KM12 colon): 309 nM; TGI (KM12 colon): > 34900 nM; GI50 (LOX IMVI melanoma): 483 nM; TGI (LOX IMVI melanoma): > 34600 nM; GI50 (M14 melanoma): 311 nM; TGI (M14 melanoma): > 36100 nM; GI50 (MALME-3M melanoma): 1300 nM; TGI (MALME-3M melanoma): > 47200 nM; GI50 (MCF7 breast): 338 nM; TGI (MCF7 breast): > 40000 nM; GI50 (MDA-MB-231 breast): 495 nM; TGI (MDA-MB-231 breast): 8840 nM; GI50 (MDA-MB-435): 169 nM; TGI (MDA-MB-435): 437 nM; GI50 (MOLT-4 leukemia): 417 nM; TGI (MOLT-4 leukemia): 16300 nM; GI50 (NCI-H226 lung): 1140 nM; TGI (NCI-H226 lung): > 24800 nM; GI50 (NCI-H23 lung): 585 nM; TGI (NCI-H23 lung): > 64400 nM; GI50 (NCI-H460 lung): 365 nM; TGI (NCI-H460 lung): 10900 nM; GI50 (NCI-H522 lung): 263 nM; TGI (NCI-H522 lung): 4130 nM; GI50 (NCI/ADR-RES ovarian): 291 nM; GI50 (OVCAR-3 ovarian): 252 nM; TGI (OVCAR-3 ovarian): 635 nM; GI50 (OVCAR-4 ovarian): 839 nM; TGI (OVCAR-4 ovarian): > 74500 nM; GI50 (OVCAR-5 ovarian): 619 nM; TGI (OVCAR-5 ovarian): > 43800 nM; GI50 (OVCAR-8 ovarian): 467 nM; TGI (OVCAR-8 ovarian): 28200 nM; GI50 (PC-3 prostate): 385 nM; TGI (PC-3 prostate): > 41100 nM; GI50 (RPMI-8226 leukemia): 389 nM; TGI (RPMI-8226 leukemia): 8670 nM; GI50 (SF-268 CNS): 1030 nM; TGI (SF-268 CNS): > 41000 nM; GI50 (SF-295 CNS): 330 nM; TGI (SF-295 CNS): 31200 nM; GI50 (SF-539 CNS): 247 nM; TGI (SF-539 CNS): 785 nM; GI50 (SK-MEL-2 melanoma): 859 nM; TGI (SK-MEL-2 melanoma): > 52300 nM; GI50 (SK-MEL-28 melanoma): 2400 nM; TGI (SK-MEL-28 melanoma): 38700 nM; GI50 (SK-MEL-5 melanoma): 488 nM; TGI (SK-MEL-5 melanoma): 2630 nM; GI50 (SK-OV-3 ovarian): 492 nM; TGI (SK-OV-3 ovarian): > 100000 nM; GI50 (SN12C renal): 678 nM; TGI (SN12C renal): 20000 nM; GI50 (SNB-19 CNS): 647 nM; TGI (SNB-19 CNS): > 44800 nM; GI50 (SNB-75 CNS): 180 nM; TGI (SNB-75 CNS): 2740 nM; GI50 (SR leukemia): 204 nM; TGI (SR leukemia): 5770 nM; GI50 (SW-620 colon): 406 nM; TGI (SW-620 colon): > 42200 nM; GI50 (T-47D breast): 360 nM; TGI (T-47D breast): 71300 nM; GI50 (TK-10 renal): 2230 nM; TGI (TK-10 renal): > 62300 nM; GI50 (U251 CNS): 443 nM; TGI (U251 CNS): > 41600 nM; GI50 (UACC-257 melanoma): 7490 nM; TGI (UACC-257 melanoma): 35400 nM; GI50 (UACC-62 melanoma): 577 nM; TGI (UACC-62 melanoma): > 44700 nM; GI50 (UO-31 renal): 839 nM; TGI (UO-31 renal): > 42900 nM
